Measurements: PubChem BioAssay AID330 (DTP/NCI, 2004)
Values joined by “and” are separate entries in the source; they are usually repeats but may differ in a detail not shown here. Identical values can stand only once. Toxic doses and inconclusive results are not listed. How the source made its calls: active means survival T/C of 150% or more; inactive means T/C below 125% in these data.

Tested on: P388 leukemia ip, CD2F1 mice, survival T/C
Assay: NCI In Vivo Anticancer Drug Screen. Data for tumor model P388 Leukemia (intraperitoneal) in CD2F1 (CDF1) mice
Conditions: endpoint: median survival time, higher = longer survival
Procedure, shortened: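 Mice carrying the transplanted tumor received test compound or vehicle. Survival was recorded in each group, and the value is the treated-group measurement divided by that of the vehicle-treated control group.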

[1] = dose: 25.0 mg/kg/injection, schedule: Q01DX009 (ip), vehicle: water
[2] = dose: 50.0 mg/kg/injection, schedule: Q01DX009 (ip), vehicle: water

Measured: T/C

CCCCCCCCCCCC(=O)OC1CCC2(C)C(=CCC3C2CCC2(C)C(C(C)/C=C/C(CC)C(C)C)CCC32)C1 (configuration not stated)
inactive: dose: 100.0 mg/kg/injection, schedule: Q04DX003 (ip), vehicle: other 102 % of control | dose: 200.0 mg/kg/injection, schedule: Q04DX003 (ip), vehicle: other 102 % of control

CCCCCCCCCCCCCCCC[N+](C)(C)C
inactive: dose: 1.56 mg/kg/injection, schedule: Q01DX009 (ip), vehicle: saline 99 % of control and 115 % of control and 120 % of control | dose: 1.56 mg/kg/injection, schedule: Q04DX003 (ip), vehicle: saline with Tween-80 100 % of control | dose: 2.0 mg/kg/injection, schedule: Q01DX009 (ip), vehicle: saline 113 % of control | dose: 3.12 mg/kg/injection, schedule: Q01DX009 (ip), vehicle: saline 118 % of control and 121 % of control | dose: 3.13 mg/kg/injection, schedule: Q01DX009 (ip), vehicle: saline 109 % of control | dose: 3.13 mg/kg/injection, schedule: Q04DX003 (ip), vehicle: saline with Tween-80 104 % of control | dose: 4.7 mg/kg/injection, schedule: Q01DX009 (ip), vehicle: saline 86 % of control | dose: 6.25 mg/kg/injection, schedule: Q04DX003 (ip), vehicle: saline with Tween-80 100 % of control and 112 % of control

O=C(O)C[N-]CC(=O)O.OO.[O]=[V]
inactive: dose: 3.75 mg/kg/injection, schedule: Q01DX005 (ip), vehicle: saline with Tween-80 102 % of control | dose: 7.5 mg/kg/injection, schedule: Q01DX005 (ip), vehicle: saline with Tween-80 105 % of control | dose: 15.0 mg/kg/injection, schedule: Q01DX005 (ip), vehicle: saline with Tween-80 112 % of control | dose: 30.0 mg/kg/injection, schedule: Q01DX005 (ip), vehicle: saline with Tween-80 120 % of control

CC1=CCC[C@@H]2C1(C)CCC(C)[C@@]2(C)CC1=CC(=O)C=CC1=O (some centres not stated)
inactive: dose: 0.62 mg/kg/injection, schedule: Q01DX005 (ip), vehicle: saline with Tween-80 99 % of control | dose: 1.25 mg/kg/injection, schedule: Q01DX005 (ip), vehicle: saline with Tween-80 103 % of control | dose: 2.5 mg/kg/injection, schedule: Q01DX005 (ip), vehicle: saline with Tween-80 99 % of control | dose: 5.0 mg/kg/injection, schedule: Q01DX005 (ip), vehicle: saline with Tween-80 98 % of control | dose: 10.0 mg/kg/injection, schedule: Q01DX005 (ip), vehicle: saline with Tween-80 103 % of control

CCN(CC)CCNc1ccc(C)c2sc3c(OC)cccc3c(=O)c12
inactive: dose: 50.0 mg/kg/injection, schedule: Q01DX009 (ip), vehicle: saline with Tween-80 113 % of control | dose: 100.0 mg/kg/injection, schedule: Q01DX009 (ip), vehicle: saline with Tween-80 100 % of control | dose: 200.0 mg/kg/injection, schedule: Q01DX009 (ip), vehicle: saline with Tween-80 116 % of control

c1ccc(CON(CCc2ccccn2)CCc2ccccn2)cc1
inactive: dose: 50.0 mg/kg/injection, schedule: Q01DX005 (ip), vehicle: saline 97 % of control | dose: 100.0 mg/kg/injection, schedule: Q01DX005 (ip), vehicle: saline 98 % of control | dose: 200.0 mg/kg/injection, schedule: Q01DX005 (ip), vehicle: saline 98 % of control

CC(=O)Nc1cc(NC(C)=O)c(N=O)c(NC(C)=O)n1
inactive: dose: 50.0 mg/kg/injection, schedule: Q01DX009 (ip), vehicle: saline 100 % of control | dose: 100.0 mg/kg/injection, schedule: Q01DX009 (ip), vehicle: saline 99 % of control | dose: 200.0 mg/kg/injection, schedule: Q01DX009 (ip), vehicle: saline 91 % of control

O=NNc1ccc([N+](=O)[O-])cc1
inactive: dose: 3.12 mg/kg/injection, schedule: Q01DX009 (ip), vehicle: water 102 % of control | dose: 6.25 mg/kg/injection, schedule: Q01DX009 (ip), vehicle: water 112 % of control and 121 % of control
active: [1] 152 % of control | [2] 159 % of control

CC(C)CS(=O)(=O)c1ncnc2nc[nH]c12
inactive: dose: 50.0 mg/kg/injection, schedule: Q01DX005 (ip), vehicle: Klucel (hydroxypropylcellulose) (HPC) 102 % of control | dose: 100.0 mg/kg/injection, schedule: Q01DX005 (ip), vehicle: Klucel (hydroxypropylcellulose) (HPC) 97 % of control | dose: 200.0 mg/kg/injection, schedule: Q01DX005 (ip), vehicle: Klucel (hydroxypropylcellulose) (HPC) 91 % of control

NC(=S)N/N=C\c1nccc2c(C(F)(F)F)cccc12
inactive: dose: 1.5 mg/kg/injection, schedule: Q04DX003 (ip), vehicle: saline with Tween-80 91 % of control | dose: 3.0 mg/kg/injection, schedule: Q04DX003 (ip), vehicle: saline with Tween-80 95 % of control | dose: 6.0 mg/kg/injection, schedule: Q04DX003 (ip), vehicle: saline with Tween-80 99 % of control | dose: 12.0 mg/kg/injection, schedule: Q04DX003 (ip), vehicle: saline with Tween-80 91 % of control

O=NCC(=O)OCc1ccccc1
inactive: dose: 12.5 mg/kg/injection, schedule: Q01DX009 (ip), vehicle: water 95 % of control | [1] 87 % of control | [2] 95 % of control | dose: 100.0 mg/kg/injection, schedule: Q01DX009 (ip), vehicle: water 99 % of control | dose: 200.0 mg/kg/injection, schedule: Q01DX009 (ip), vehicle: water 99 % of control

NNC(=O)c1nc2ccccc2s1
inactive: dose: 37.5 mg/kg/injection, schedule: Q04DX003 (ip), vehicle: saline with Tween-80 100 % of control | dose: 75.0 mg/kg/injection, schedule: Q04DX003 (ip), vehicle: saline with Tween-80 100 % of control | dose: 150.0 mg/kg/injection, schedule: Q04DX003 (ip), vehicle: saline with Tween-80 95 % of control

COc1cccc2c1cc([N+](=O)[O-])c1c(C(=O)O)cc3c(c12)OCO3
inactive: dose: 2.5 mg/kg/injection, schedule: Q01DX009 (ip), vehicle: Klucel (hydroxypropylcellulose) (HPC) 118 % of control | dose: 2.5 mg/kg/injection, schedule: Q01DX009 (ip), vehicle: saline 108 % of control | dose: 5.0 mg/kg/injection, schedule: Q01DX009 (ip), vehicle: Klucel (hydroxypropylcellulose) (HPC) 118 % of control | dose: 5.0 mg/kg/injection, schedule: Q01DX009 (ip), vehicle: saline 117 % of control | dose: 10.0 mg/kg/injection, schedule: Q01DX009 (ip), vehicle: saline 117 % of control

Oc1ccc[nH]c1=S
inactive: dose: 12.5 mg/kg/injection, schedule: Q01DX009 (ip), vehicle: saline 104 % of control and 105 % of control

COc1ccc(C2N=C(N)Nc3nc[nH]c32)c(OC)c1 (configuration not stated)
inactive: dose: 50.0 mg/kg/injection, schedule: Q01DX009 (ip), vehicle: suspension in saline 102 % of control | dose: 100.0 mg/kg/injection, schedule: Q01DX009 (ip), vehicle: suspension in saline 115 % of control | dose: 200.0 mg/kg/injection, schedule: Q01DX009 (ip), vehicle: suspension in saline 109 % of control

CCOC(=O)c1ccc2c(c1)Nc1cc3ccccc3cc1N2
inactive: dose: 25.0 mg/kg/injection, schedule: Q01DX009 (ip), vehicle: saline + alcohol 104 % of control | dose: 50.0 mg/kg/injection, schedule: Q01DX009 (ip), vehicle: saline + alcohol 88 % of control | dose: 100.0 mg/kg/injection, schedule: Q01DX009 (ip), vehicle: saline + alcohol 101 % of control

c1ccc(C(c2ccccc2)[P+](c2ccccc2)(c2ccccc2)c2ccccc2)cc1
inactive: dose: 0.15 mg/kg/injection, schedule: Q01DX009 (ip), vehicle: Klucel (hydroxypropylcellulose) (HPC) 101 % of control | dose: 0.31 mg/kg/injection, schedule: Q01DX009 (ip), vehicle: Klucel (hydroxypropylcellulose) (HPC) 109 % of control and 114 % of control | dose: 0.63 mg/kg/injection, schedule: Q01DX009 (ip), vehicle: Klucel (hydroxypropylcellulose) (HPC) 111 % of control | dose: 1.25 mg/kg/injection, schedule: Q01DX009 (ip), vehicle: Klucel (hydroxypropylcellulose) (HPC) 118 % of control and 123 % of control and 86 % of control

OCc1cc2ccc3ccccc3c2[nH]1
inactive: dose: 60.0 mg/kg/injection, schedule: Q01DX005 (ip), vehicle: saline with Tween-80 96 % of control | dose: 120.0 mg/kg/injection, schedule: Q01DX005 (ip), vehicle: saline with Tween-80 89 % of control | dose: 240.0 mg/kg/injection, schedule: Q01DX005 (ip), vehicle: saline with Tween-80 91 % of control

Cc1cc(=O)n2[nH]cnc2n1
inactive: dose: 12.5 mg/kg/injection, schedule: Q01DX009 (ip), vehicle: Klucel (hydroxypropylcellulose) (HPC) 97 % of control | dose: 25.0 mg/kg/injection, schedule: Q01DX009 (ip), vehicle: Klucel (hydroxypropylcellulose) (HPC) 109 % of control and 110 % of control and 98 % of control | dose: 200.0 mg/kg/injection, schedule: Q01DX009 (ip), vehicle: Klucel (hydroxypropylcellulose) (HPC) 99 % of control and 107 % of control and 109 % of control | dose: 400.0 mg/kg/injection, schedule: Q01DX009 (ip), vehicle: Klucel (hydroxypropylcellulose) (HPC) 104 % of control and 119 % of control

CC[n+]1cccc2ccccc21
inactive: dose: 100.0 mg/kg/injection, schedule: Q04DX003 (ip), vehicle: saline with Tween-80 101 % of control | dose: 200.0 mg/kg/injection, schedule: Q04DX003 (ip), vehicle: saline with Tween-80 94 % of control
